Patent US11485737B2, “Diaryl substituted 5,5-fused ring compounds as C5aR inhibitors” (CHEMOCENTRYX, INC., priority 2017, dated 2022)

The compounds below were run against T1, C5aR (Homo sapiens, UniProt P21730) (assay: Chemotaxis assay using U937 cells (C5a-induced migration)). Conditions: chemotaxis (migration) of U937 cells towards C5a; read-out: Mig IC50.
T1 construct: U937 cells are a monocytic cell line which express C5aR; host or cells: U937 cells (cAMP-treated overnight)
T1 sequence (P21730 1-350): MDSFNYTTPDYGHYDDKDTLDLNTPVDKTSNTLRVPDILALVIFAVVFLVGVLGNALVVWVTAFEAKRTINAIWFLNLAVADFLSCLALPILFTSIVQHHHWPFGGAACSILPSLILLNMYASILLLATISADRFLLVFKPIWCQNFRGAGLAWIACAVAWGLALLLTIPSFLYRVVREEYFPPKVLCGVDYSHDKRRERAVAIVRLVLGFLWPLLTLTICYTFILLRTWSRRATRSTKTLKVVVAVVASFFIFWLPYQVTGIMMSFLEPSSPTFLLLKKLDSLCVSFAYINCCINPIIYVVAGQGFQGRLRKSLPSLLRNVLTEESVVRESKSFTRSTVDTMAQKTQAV
Format: cell-based
Experimental: U937 cells are a monocytic cell line which express C5aR, and are available from ATCC (VA). These cells were cultured as a suspension in RPMI-1640 medium supplemented with 2 mM L-glutamine, 1.5 g/L sodium bicarbonate, 4.5 g/L glucose, 10 mM HEPES, 1 mM sodium pyruvate, and 10% FBS. Cells were grown under 5% CO2/95% air, 100% humidity at 37° C. and subcultured twice weekly at 1:6 (cells were cultured at a density range of 1×10^5 to 2×10^6 cells/mL) and harvested at 1×10^6 cells/mL. Prior to assay, cells are treated overnight with 0.5 mM of cyclic AMP (Sigma, OH) and washed once prior to use. cAMP treated U937 cells can be used in C5aR ligand binding and functional assays.
Optionally, compounds may be further assayed for their ability to inhibit chemotaxis in cells. Chemotaxis assays are performed using 5 μm pore polycarbonate, polyvinylpyrrolidone-coated filters in 96-well chemotaxis chambers (Neuroprobe; Gaithersburg, Md.) using chemotaxis buffer (Hank's balanced salt solution (HBSS) and 1% FBS). C5aR ligands (i.e., C5a, R&D Systems; Minneapolis, Minn.) are use to evaluate compound mediated inhibition of C5aR mediated migration. Other chemokines (i.e., SDF-1α; R&D Systems; Minneapolis, Minn.) are used as specificity controls. The lower chamber is loaded with 29 μl of chemokine (i.e., 0.03 nM C5a) and varying amounts of compound; the top chamber contains 100,000 U937 or neutrophil cells in 20 μl. The chambers are incubated 1.5 hours at 37° C., and the number of cells in the lower chamber quantified either by direct cell counts in five high powered fields per well or by the CyQuant assay (Molecular Probes), a fluorescent dye method that measures nucleic acid content and microscopic observation.
The compounds in Table 1, below, were prepared using the methods described above. Characterization data is provided for each compound listed. Activity is provided as follows for the chemotaxis assay using U937 cells as described herein (Example 7): +, 500 nM<IC50; ++, 50 nM<IC50<500 nM; +++, 5 nM<IC50<50 nM; and ++++, IC50<5 nM.

| Structure (SMILES) | IC50 [µM] |
| --- | --- |
| Cc1cccc(C)c1-n1nc2c(c1-c1cc(F)c(NC(N)=O)cc1F)CN(Cc1ccc(C(F)(F)F)cc1C(F)(F)F)C2(C)C [Compound 1.007] | < 0.005 |
| CCc1cccc(CC)c1-n1nc2c(c1-c1cc(F)c(NC(N)=O)cc1F)CN(C(=O)CC(C)C)C2(C)C [Compound 1.012] | < 0.005 |
| CCc1cccc(CC)c1-n1nc2c(c1-c1cc(F)c(NC(N)=O)cc1F)CN(Cc1ccc(C(F)(F)F)cc1C(F)(F)F)C2(C)C [Compound 1.018] | < 0.005 |
| Cc1cccc(C)c1-n1nc2c(c1-c1ccc(NC(N)=O)cc1)CN(CC(C)(C)C)C2 [Compound 1.022] | 0.05 to 0.5 |
| Cc1cccc(C)c1-n1nc2c(c1-c1ccc(C(N)=O)cc1)CN(C(=O)c1ccccc1)C2 [Compound 1.037] | > 0.5 |
| Cc1cccc(C)c1-n1nc2c(c1-c1ccc(C(N)=O)cc1)CN(c1ccc(C(F)(F)F)c(Cl)c1)C2=O [Compound 1.020] | > 0.5 |

Other lines, results leading:

| IC50 [µM] | Structure (SMILES) |
| --- | --- |
| > 0.5 | Cc1cccc(C)c1-n1nc2c(c1-c1ccc(NC(N)=O)cc1)CN(C(=O)OC(C)(C)C)C2 [Compound 1.029] |
| > 0.5 | Cc1cc(-c2c3c(nn2-c2c(C)cccc2C)CN(c2cc(C(C)(C)C)ccc2C)C3=O)ccc1C(N)=O [Compound 1.025] |
| > 0.5 | Cc1cccc(C)c1-n1nc2c(c1-c1ccc(C(N)=O)cc1)CN(C(=O)c1ccc(C(C)(C)C)cc1)C2 [Compound 1.036] |
| > 0.5 | Cc1ccc(C(C)(C)C)cc1N1Cc2nn(-c3c(C)cccc3C)c(-c3ccc(C(=O)O)cc3)c2C1 [Compound 1.043] |
| 0.005 to 0.05 | CCCOc1cccc(C)c1-n1nc2c(c1-c1ccc(N)cc1)CN(c1cc(C(C)(C)C)ccc1C)C2 [Compound 1.053] |
